A short description of data set [1]: Log D by octanol/aqueous buffer partitioning. In kind it is physicochemical. The note with it: pH 7.4, 1-octanol/buffer. As to the method: The Log D of selected compounds was evaluated by octanol/aqueous buffer partitioning. 500 μL of organic phase (1-octanol) was added to each well of a 2 mL deep well plate, followed by 500 μL of buffer and 15 μL of test compound in DMSO (0.15 mM). The plate was vortexed for 10 seconds and incubated at room temperature for 1 hr on a plate shaker at 200 rpm. After incubation, the samples were allowed to equilibrate for 20 min and then centrifuged at 4000 rpm for 30 min for complete phase separation. The distribution of test compound in buffer and octanol phase was analyzed by HPLC-UV. Log D=Log (Area of Octanol/Area of Buffer).

The nature of data set [2]: In vivo pharmacokinetic properties in rats (IV and PO). Further details: species or system male Sprague Dawley rats. The method, boiled down:
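Male Sprague Dawley rats received 2.00 mg/kg IV via the tail vein, with plasma sampled from a cannulated jugular vein from 0.083 to 24 h. Oral dosing was 10 mg/kg in rats or C57BL/6J mice, sampled at 0.25-24 h by jugular cannula (rats) or retro-orbital plexus (mice).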

Data set [3] is described as follows: In vivo pharmacokinetic properties in mice (IV and PO). Details: species or system C57BL/6J mice. Particulars: mouse, in vivo. The method, boiled down:
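Male C57BL/6J mice received 10 mg/kg orally; plasma sampled by retro-orbital capillary at 0.25–24 h. IV dosing described at 2.00 mg/kg via tail vein, plasma sampled 0.083–24 h.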

Compound `CC(C)(C)c1cc(-c2cncc(-c3ccc(C(=O)N4CCC(O)CC4)cc3Cl)c2)ccn1` [Compound Z-725] came in with a LogD in data set [1] of 3.56. In addition, in data set [2] (IV, 2 mg/kg), the “Intravenous Delivery (IV) CL” value came to 1.81 L/h/kg, the “Intravenous Delivery (IV) T1/2” value amounted to 1.53 h and the “Intravenous Delivery (IV) Vd” value stood at 4.02 L/kg. Also, the “% F (Bioavailability of oral delivery)” value in data set [2] (PO 10 mg/kg vs IV 2 mg/kg) stood at 24%. Further, in data set [2] (PO, 10 mg/kg), the “Oral Administration (PO) AUC0-last” value turned out to be 1307, the “Oral Administration (PO) T1/2” value is 5.1 h and the “Oral Administration (PO) Tmax” value is 1.67 h. Moreover, in data set [3], the “% F (Bioavailability of oral delivery)” value is recorded as 58%. In data set [3] (iv, 2 mg/kg), the Intravenous Delivery (IV) AUC0-last is 1.9 µg·h/mL, the “Intravenous Delivery (IV) CL” value was found to be 1.05 L/h/kg, the “Intravenous Delivery (IV) T1/2” value is recorded as 3.39 h and the “Intravenous Delivery (IV) Vd” value came out at 5.13 L/kg. In addition, in data set [3] (po, 10 mg/kg), the Oral Administration (PO) AUC0-last was determined as 5.4 µg·h/mL, the “Oral Administration (PO) T1/2” value is 4.72 h and the “Oral Administration (PO) Tmax” value is given as 1 h.

Broadly, the LogD is the decadic logarithm of the distribution of all forms, ionised or not, between an organic phase and buffer at a given pH.

These data come from patent US11718628B2, “SREBP inhibitors comprising a 6-membered central ring” (Capulus Therapeutics, LLC, priority 2018, dated 2023).
